Experimental data reported in patent US10213451B2, “Methods and compounds for modulating the secretion or expression of adhesion proteins or angiopoietins of cells” (PACIFIC ARROW LIMITED, priority 2004, dated 2019).
Converted amounts (≈) assume the structure as drawn.

Columns and labels:
[1] = system: ES2 (human ovarian cancer) cells transplanted sc; experiment: Animal study, size of sc ES2 tumor; type: in vivo, Athymic Nu/Nu mice
Method: • Athymic Nu/Nu mice (2-3 months old) were transplanted sc with ES2 (human ovarian cancer) cells. • Five days after the transplant (day one), mice were divided into two groups (H and J) with two animals in each group. • Group H: On days 1-5, and 8-10 mice received daily drug administration of Xanifolia-Y, by i.p. route at dose of 2.5 mg/kg. • Group J mice received no drug-treatment.

[2] = system: Fibronectin secretion from bladder carcinoma cells (HTB-9); experiment: Fibronectin secretion (Western blot), HTB-9 cells; type: cell-based, human; conditions: 10 ug/ml
[3] = system: Fibronectin cellular content in ES2 cells; experiment: Cellular contents of Fibronectin and beta-actin (Western blot); type: cell-based, human; conditions: 24 hours
Method: Cells: ES2 (human ovarian carcinoma cells) were grew in RPMI 1640 medium. 1.5 million cells were seeded in a T25 flask and grown for 24 hours before drug-treatment. Drug-treatment: Cells cultures were replaced with fresh RPMI medium containing either 2.5 ul of DMSO (as control) [D]; or 10 ug/ml (final concentration) of Xanifolia-Y3 [Y]. After 24 hours, aliquot of culture medium was taken out for Fibronectin determination (Western blot method). The attached cells were suspended in 1 ml of SDS sample buffer (cell-extract).
Western Blot: Spent culture medium (0.6 ml) was mixed with SDS sample buffer (0.2 ml), and the cell-extract was boiled for 3 minutes before loading to SDS gel. Samples (80 ul/lane) were applied to a 6%-10% SDS gel and electrophoresis was conducted with 100 volts for 2 hours. Protein was transferred to a nitrocellulose membrane electrophoretically (30 min at 100 volts). The nitrocellulose blot was blocked with 5% non-fat dry milk in PBS (1-2 hours). The blot was then incubated with the first antibodies (mouse anti-FN, specific to human FN, SIGMA F0916 and mouse anti-beta actin, SIGMA A5316) and second antibody (Anti-mouse IgG AP conjugated, Promega S3721). The immuno-bands were developed with BCIP/NBT color development system (Promega S3771). Determination of Western band intensity: The band-images of Western blot were captured with a digital camera (3-5 pictures were taken per gel) and the intensity of bands was determined using “Image J” software.
FN concentrations were normalized with the cellular beta-Actin concentrations. Fibronectin secreted into medium and inside Y-treated cells were determined and compare to controls (DMSO-treated cells).

[4] = system: human ovarian cancer cell lines; experiment: MTT assay, additional human ovarian cancer cell lines; type: cell-based; conditions: 10 additional human ovarian cancer cell lines
Method: Majority of ovarian cancers arise from the surface epithelium of ovary, most of them belong to the histological subtypes of clear cell and serous carcinoma. We obtained 10 more human ovarian carcinoma cell-lines of these histological subtypes for these studies. The inhibition activity exerted by Xanifolia-Y was determined with MTT assay.

[5] = system: OVCAR3 cells (from ovary); experiment: MTT assay OVCAR3; type: cell-based; conditions: Homo sapiens, OVCAR-3; OVCAR3, Serous
Method: Cells. Human cancer cell lines were obtained from American Type Culture Collection: HTB-9 (bladder), HeLa-S3 (cervix), DU145 (prostate), H460 (lung), MCF-7 (breast), K562 (leukocytes), HCT116 (colon), HepG2 (liver), U2OS (bone), T98G (brain), SK-MEL-5 (Skin) and OVCAR-3 (ovary). The cells were grown in following culture media: HeLa-53, DU145, MCF-7, Hep-G2 and T98G are in MEN (Earle's salts); HTB-9, H460, K562 and OVCAR-3 in RPMI-1640; HCT-116 and U2OS in McCoy-5A. They are supplemented with 10% fetal calf serum, glutamine and antibiotics, and incubated in an incubator with 5% CO2 humidified at 37° C.
MTT Assay. […] The formazan (product of the reduction of tetrazolium by viable cells) formed and was dissolved with DMSO and the O.D. at 490 nm, and was measured by an ELISA reader. The MTT level of the cells before drug-treatment was also measured (T0). The % cell-growth (% G) is calculated as: % G=(TD−T0/TC−T0)×100(1), where TC or TD represents O.D. readings of control or drug-treated cells. When T0>TD, then the cytotoxicity (LC) expressed as % of the control is calculated as: % LC=(TD−T0/T0)×100(2).
Majority of ovarian cancers arise from the surface epithelium of ovary, most of them belong to the histological subtypes of clear cell and serous carcinoma. […] The inhibition activity exerted by Xanifolia-Y was determined with MTT assay.

(Mouth) KB cells = experiment: MTT assay KB; type: cell-based; conditions: Homo sapiens
[6] = system: swelling of the recto-anus of rats; experiment: Croton oil induced swelling of the recto-anus (hemorrhoids model); type: in vivo, SD rats
Method: SD rats, male, age-matched 7-8 weeks old weighing 163±18 g were in the experiment. The tested animals were allowed to acclimate for a week.
A cotton swab with a diameter of 4 mm soaked with 0.16 mL of inducer (deionized water:pyridine:ethyl ether:6% croton oil/ethyl ether, 1:4:5:10) was applied to the rat's anus for 12 seconds. The final concentration of croton oil was 3%. The edema developed linearly until 7-8 hours after application and the severity of the edema was sustained for more than 24 hours. Twenty-four hours later, recto-anus tissue (approx. 10 mm long) was isolated after the rats were euthanized. The weights of rat body and recto-anus were measured. The recto-anus coefficient (RAC) was calculated using the formula: weight of recto-anus (mg)/body weight (g). RAC=weight of recto-anus (mg)/body weight (g)×100%
The rates were randomly divided into 5 groups: control, positive control and 3 test groups, and each group had 8 rats. The dose for 3 groups of rats are 10, 20 and 40 mg/kg. The dose of 0.5% CMC-Na for control group is the same as the each test group. The tested drug was fed into the stomach on the morning, once a day before the animal modeling for 5 days. The anus suppository was applied to positive control once after the animal modeling (1 mL/100 g). The weights of recto-anus and RACs were calculated, compared with the controls and subject to a student t-test.

With `C/C=C(/C)C(=O)O[C@H]1[C@H](OC(=O)/C(C)=C\C)[C@@]2(CO)C(CC1(C)C)C1=CCC3[C@@]4(C)CC[C@H](O[C@@H]5OC(C(=O)O)[C@@H](O)C(O[C@@H]6O[C@@H](CO)C(O)C6O)C5O[C@@H]5OC(CO)[C@H](O)C(O)C5O)C(C)(C)C4CC[C@@]3(C)[C@]1(C)[C@@H](O)[C@H]2O` (stereo partly drawn) [Xanifolia-Y, 3-O-[β-D-galactopyranosyl (1→2)]-α-L-arabinofuranosy (1→3)-β-D-glucuronopyranosyl-21,22-O-diangeloyl-3β, 15α, 16α, 21β, 22α, 28-hexahydroxyolean-12-ene] the “tumor size smaller than in mice with no drug” value ([1]; 10 days period) was 45%, the tumor size ([1]; Group H: i.p. 2.5 mg/kg days 1-5 and 8-10, in 10 days) was 10 mm and the “% inhibition of Fibronectin secretion” value [2] was “about 50%”. The “% inhibition of Fibronectin secretion” value ([2]; listed as Y3) was 51%, the inhibition at 10 µg/mL ([2]; Homo sapiens) was 50% and the cellular beta-actin content ([3]; 10 ug/ml) was “no change”. For the same compound, the “decrease of Fibronectin cellular content” value ([3]; 10 ug/ml) was 70%, the activity at 10 µg/mL ([3]; Homo sapiens, ES-2, 10 ug/ml, read-out: Fibronectin cellular content, % of control) was 30% and the IC50 [4] was 2000 to 12000 nM. It also gave an IC50 ([4]; Homo sapiens) of 2000 to 10000 nM, an IC50 [5] of 2200 nM and an IC50 ((Mouth) KB cells) of 6 µg/mL (≈ 5.26 µM). The RAC ([6]; 10 mg/Kg) was 1.83 ± 0.36, the Reduction rate % ([6]; 10 mg/Kg) was 21.5% and the “Weight of recto-anus” value ([6]; 10 mg/Kg fed into the stomach once a day for 5 days) was 4.68 ± 0.77 g. For the same compound, the RAC ([6]; 20 mg/Kg) was 1.61 ± 0.24, the Reduction rate % ([6]; 20 mg/Kg) was 30.9% and the “Weight of recto-anus” value ([6]; 20 mg/Kg) was 4.28 ± 0.60 g. For the same compound, the RAC ([6]; 40 mg/Kg) was 1.51 ± 0.23, the Reduction rate % ([6]; 40 mg/Kg) was 35.1% and the “Weight of recto-anus” value ([6]; 40 mg/Kg) was 3.97 ± 0.65 g.
